Source: the Bradley open melting point set (2014)
“And” between values parts separate entries of the source, which are not always exact repeats. Equal entries are not always repeated.

Compound	melting point
Cc1ccccc1O [o-cresol]	31 °C and 32 °C
Cn1ccnc1S [2-mercapto-1-methylimidazole]	146 °C
Oc1cccc2cccnc12 [Quinolin-8-ol]	76 °C
CC1(C)[C@H]2CC[C@]1(CS(=O)(=O)Cl)C(=O)C2 [(1R)-camphor-10-sulfonyl chloride]	66 °C
Nc1ccc(Cl)cc1[N+](=O)[O-] [4-chloro-2-nitroaniline]	116 °C
CN1C(=O)c2ccccc2C1C=C(c1ccccc1)c1ccccc1 (stereo not given) [3-(2,2-Diphenylethenyl)-2-methylisoindolin-1-one]	147 °C
CC(C)(C)CCl [neopentyl chloride]	-20 °C
O=C1CCCc2cc3c(c(-c4ccccc4)c21)-c1cc(Cl)ccc1OC3	185 °C
O=[N+]([O-])/C=C/c1cccc([N+](=O)[O-])c1 [beta,3-dinitrostyrene]	126 °C
C#CCCCC [1-hexyne]	-132 °C
O=C1CS/C(=N\c2ccccc2)N1c1ccccc1 [OSM-S-47]	176 °C
OCCSSCCO [2-Hydroxyethyl Disulfide]	26 °C
CCc1nnc(N)s1 [5-Ethyl-1,3,4-thiadiazol-2-amine]	201 °C
O=C(CO)CO [1,3-Dihydroxyacetone]	75 °C
CCCCCCCCSc1cc(N(NC(=O)OC(C)(C)C)C(=O)OC(C)(C)C)cc(SCCCCCCCC)c1SCCCCCCCC	51.5 °C
N#Cc1ccccc1C=O [2-cyanobenzaldehyde]	104 °C
N#Cc1ccc([N+](=O)[O-])cc1Cl [2-chloro-4-nitrobenzonitrile]	80 °C
O=C(O)CCCCCCCCCCCCCCO [15-hydroxypentadecanoic acid]	86 °C
OCCCCO [1,4-Butanediol]	20.1 °C

Compound	melting point
CC1=CC[C@@H]2C[C@H]1C2(C)C [alpha-pinene]	-62 °C
CC(=O)c1ccc(Br)cc1 [p-bromoacetophenone]	51 °C
CCCCCCCC [octane]	-57 °C and -56.8 °C
CCOC(=O)C(C#N)=c1sc(=C(C#N)C(=O)OCC)s1 [DIETHYL 2,2'-(1,3-DITHIETANE-2,4-DIYLIDENE)BIS(CYANOACETATE)]	161 °C
Oc1cc(Cl)c(Cl)cc1Cl [2,4,5-trichlorophenol]	69 °C and 67 °C and 68 °C
Cc1cc(Cl)nc(Cl)c1C#N [2,6-dichloro-4-methylnicotinonitrile]	113 °C
CCCCCCCCI [1-iodooctane]	-44 °C
NC(=O)c1cccnc1 [Nicotinamide]	130 °C
O=[N+]([O-])c1ccc(Cl)c(Cl)c1 [3,4-Dichloronitrobenzene]	41.3 °C
CC=C1CCC2C3CCC4CC(OC(C)=O)CCC4(C)C3CCC12C (stereo not given) [pregn-17-en-3-yl acetate]	119 °C
C[C@]12CCC(=O)C=C1CC[C@@H]1[C@@H]2CC[C@@]2(C)[C@H]1CC[C@]2(C)O [methyltestosterone]	164 °C
N#CCc1ccccc1[N+](=O)[O-] [(2-Nitrophenyl)acetonitrile]	84 °C
OCC(CO)(CO)CO [Pentaerythritol]	260 °C
O=C=NCCCCCCN=C=O [1,6-Diisocyanatohexane]	-55 °C
CCCCCCCCOc1cc(N(NC(=O)OC(C)(C)C)C(=O)OC(C)(C)C)cc(OCCCCCCCC)c1OCCCCCCCC	73.5 °C
CCCCCCCCCCCCCCCCCCCC [N-eicosane]	37 °C
CCCCCCC#N [hexyl_cyanide]	-63 °C
C/C=C\CCCCC [cis-2-octene]	-100 °C
OC1CC2=C(CCCC2)CC1O (stereo not given) [1,2,3,4,5,6,7,8-octahydronaphthalene-2,3-diol]	121 °C

More lines, now with the values ahead:

melting point	Compound
185 °C	OB(O)c1ccc(F)cc1C(F)(F)F [4-fluoro-2-(trifluoromethyl)benzeneboronic acid]
144 °C	CN(C)CC(=O)N1c2ccccc2Sc2ccccc21 [ahistan]
136 °C	O=Cc1ccc(O)cc1O [2,4-dihydroxybenzaldehyde]
123 °C	Cc1cc(CO)c(O)c(CO)c1 [2,6-bis(hydroxymethyl)-p-cresol]
-52 °C	COCc1ccccc1 [benzyl_methyl_ether]
150 °C	C#CCN1C(=O)c2ccccc2C1=O [N-propargylphthalimide]
156 °C	Cc1cc([N+](=O)[O-])cc[n+]1[O-] [4-nitro-2-picoline n-oxide]
52 °C	COc1cc(C(C)=O)ccc1F [4'-fluoro-3'-methoxyacetophenone]
196 °C	Cc1noc(NS(=O)(=O)c2ccc(N)cc2)c1C [4-Amino-N-(3,4-dimethyl-1,2-oxazol-5-yl)benzenesulfonamide]
120 °C	O=C1OS(=O)(=O)c2ccccc21 [2-sulfobenzoic anhydride]
183 °C	CC(=O)NS(=O)(=O)c1ccc(N)cc1 [Sulfacetamide]
60 °C	Cc1cc(O)c(C(C)C)cc1Cl [4-chloro-2-isopropyl-5-methylphenol]
198 °C	O=c1ccc2ccccc2[nH]1 [2-hydroxyquinoline]
14 °C	Cc1ccc(N)c(Br)c1 [2-bromo-4-methylaniline]
188 °C	Nc1ccc2[nH]c(C(F)(F)F)nc2c1 [5-amino-2-(trifluoromethyl)benzimidazole]
135 °C	Cc1cccc2c1-c1nc3ccccc3nc1-2 [1-methylbenzo[3,4]cyclobuta[1,2-b]quinoxaline]

melting point	Compound
164 °C	Cc1cc(Br)ncc1B(O)O [6-bromo-4-methylpyridine-3-boronic acid]
150 °C	O=C(Nc1ccccc1)Nc1nnc(C(F)(F)F)s1 [N-phenyl-N'-[5-(trifluoromethyl)-1,3,4-thiadiazol-2-yl]urea]
39 °C	CCOc1ccc(C(C)=O)cc1 [p-ethoxyacetophenone]
143 °C	CC1(C)CC(=O)c2c(cc3c(c2[Si](C)(C)C)-c2ccccc2OC3)C1
161 °C	Cc1cccc(B(O)O)c1 [3-methylbenzeneboronic acid]
73 °C	Cc1cc(/C=C2\S/C(=N\c3ccccc3)N(CC#N)C2=O)c(C)n1-c1ccc(C(F)(F)F)cc1 [OSM-S-43]
5 °C	Cc1cc(Cl)ccc1Cl [2,5-dichlorotoluene]
124 °C	COc1cc(=O)oc2ccccc12 [4-methoxycoumarin]
31 °C	Cc1cccc(C=O)n1 [6-methylpyridine-2-carboxaldehyde]
136 °C	CC(C)(C)C(=O)Nc1ccncc1 [4-(2,2,2-trimethylacetamido)pyridine]
108 °C	O=C2\C(=C(/N(N2c1ccccc1)C)C)N(C)C [aminopyrine]
160 °C	NC(=O)c1cc(Cl)cc(Cl)c1 [3,5-dichlorobenzamide]
131 °C	COC(=O)c1ccc(O)cc1 [Methyl 4-hydroxybenzoate]
28 °C	COc1ccccc1O [2-Methoxyphenol]
62 °C	Fc1c(F)c(F)c(P(c2ccccc2)c2c(F)c(F)c(F)c(F)c2F)c(F)c1F [bis(pentafluorophenyl)phenylphosphine]
75 °C	NC(=O)c1ccc(C=O)cc1 [p-formyl_benzamide]
